From patent US20240376480A1, “TREATMENT OF ELEVATED METABOLITE LEVELS USING NANOCARRIERS” (RAMOT AT TEL-AVIV UNIVERSITY LTD., priority 2021, published 2024)

B1: A58U riboswitch: pbuE adenine riboswitch with uracil substituted for adenine at position 58 (nucleic acid)
chain: GCGCGTTGTATAACCTCAATAATATGGTTTGAGGGTGTCTACCAGGAACCGTAAATTCCTGATTACAACGC
modifications: expressed or natural sequence

Tests used:
aah1Δ apt1Δ yeast model [1] = conditions: TA added to the media; cited from earlier work
aah1Δ apt1Δ yeast model [2] = assay: Yeast growth assay (OD600) in excess-adenine yeast model; format: cell-based; conditions: low and high adenine concentrations (1 mg/L and 4 mg/L)
Description: Yeast growth assays: the strains used in this work were BY4741 (WT) and the adenine salvage mutant, aah1Δ apt1Δ, that was established by a disruption of both AAH1 and APT1. The strains were grown overnight at 30° C. in synthetic defined SD medium (6.7 g/L Yeast Nitrogen Base without Amino Acids (Difco) and 20 g/L glucose (Merck)) containing a specific mixture of amino acids and nucleobases (without adenine). For OD600 measurements, strains were diluted to OD600=0.01. 200 μL of cells were platted on 96 wells microplates (Greiner, F-BOTTOM) with increasing concentrations of adenine (1, 2 and 4 mg/L) and with 2.5% (V/V) of the VLP-riboswitch nano-carries and incubated at 30° C. for 25 h with continuous shaking. OD600 was measured using Tecan™ SPARK 10M plate reader.
The aah1Δ apt1Δ mutant yeast model was grown in media without adenine or in media with 1, 2, and 4 mg/L of adenine, respectively.

[3] = ligand adenine; cited from earlier work

Molecule | amyloid-like structures of the adenine inside the yeast (aah1Δ apt1Δ yeast model [1]) | growth of the model yeast (aah1Δ apt1Δ yeast model [2]) | Kd [3] [nM]
O=C(OC[C@H]1O[C@@H](OC(=O)c2cc(O)c(O)c(OC(=O)c3cc(O)c(O)c(O)c3)c2)[C@H](OC(=O)c2cc(O)c(O)c(OC(=O)c3cc(O)c(O)c(O)c3)c2)[C@@H](OC(=O)c2cc(O)c(O)c(OC(=O)c3cc(O)c(O)c(O)c3)c2)[C@@H]1OC(=O)c1cc(O)c(O)c(OC(=O)c2cc(O)c(O)c(O)c2)c1)c1cc(O)c(O)c(OC(=O)c2cc(O)c(O)c(O)c2)c1 [TA, tannic acid] | significant decrease | showed an improved growth | –
B1 | – | – | 273 ± 17
